Measured values from PMC8196580, “Identification of Kaurane-Type Diterpenes as Inhibitors of Leishmania Pteridine Reductase I” (Molecules, 2021).
Like-named read-outs stand apart in the source and are kept apart here.

Columns and labels:
L. major [1] = assay: ChEMBL dataset of pIC50 values against L. major used for the RF model (Table S1); format: cell-based, Leishmania major; also: call rule not given here
Excerpt: From the ChEMBL database (https://www.ebi.ac.uk/chembl/, accessed on 10 January 2021), we selected a diverse set of 1085 structures that were initially classified according to their predicted activity against L. major.
Excluding these structures minimized the differences in activity values resulting from errors and differences in experimental protocols. […] Standardizer software [JChem, version 16.11.28 (2016), calculation module developed by ChemAxon, https://www.chemaxon.com/, accessed on 20 January 2021] was used to canonize all simplified molecular-input line-entry system (SMILES) codes. After duplicate structures were removed, those with higher pIC50 values were eliminated, facilitating the generation of more restrictive models.

L. major [2] = system: L. major; parameters: method as in ChEMBL; conditions: ref ChEMBL, cited from earlier work
[3] = Active/Inactive class assigned to the ChEMBL pIC50 value for Random forest model construction, ref ChEMBL
[4] = ChemBL structures with pIC50 values used for Random forest model construction, L. major
[5] = Active/Inactive class assigned to ChemBL structures for Random forest model construction (Table S1)
[6] = ChemBL structures with pIC50 values used for Random forest model construction (Table S1)

Row | SMILES | Outcome (L. major [1]; [3]) | pIC50 Value (L. major [2]; [4]) | Outcome (L. major [1]; [5]) | pIC50 Value (L. major [2]; [6])
1 | Clc1ccc2c(N3CCN(Cc4ccccc4)CC3)ccnc2c1 [CHEMBL1256765] | Inactive | 4.21 | – | –
2 | CC1=C(C(=O)Nc2ccc(C(=O)/C=C/c3cccc([N+](=O)[O-])c3)cc2)C(c2cccc(O)c2)NC(=S)N1 (stereo not drawn) [CHEMBL3786907] | – | – | Active | 5.95
3 | CCC(C)n1ncn(-c2ccc(N3CCN(c4ccc(OCC5COC(Cn6cncn6)(c6ccc(Cl)cc6Cl)O5)cc4)CC3)cc2)c1=O (stereo not drawn) [CHEMBL64391] | – | – | Active | 5.70
4 | CC1(C)C2CCC1(C)[C@H](OC(=O)/C=C/c1ccc(O)c(O)c1)C2 (stereo partly drawn) [CHEMBL4177500] | Inactive | 4.31 | – | –
5 | CN1CCN(c2nnc(-c3ccc([N+](=O)[O-])o3)s2)CC1 [CHEMBL372024] | Active | 5.14 | – | –
6 | CCCCCCNc1ccc(Nc2c3ccc(Cl)cc3nc3ccc(OC)cc23)cc1 [CHEMBL420434] | – | – | Active | 6.70
7 | Cc1ncc(-c2ccnc(Nc3ccc(S(C)(=O)=O)cc3)n2)n1C(C)C [CHEMBL488436] | – | – | Active | 5.50
8 | CCN1CSC(=S)N(CC(=O)O)C1 [CHEMBL4294782] | Inactive | 4.34 | – | –
9 | Cc1ccc2cc(/C=C/C(=O)c3cc(Cl)sc3Cl)c(Cl)nc2c1 [CHEMBL1940857] | – | – | Active | 5.69
10 | c1ccc(Nc2c3ccccc3nc3ccccc23)cc1 [CHEMBL49436] | – | – | Active | 5.57
11 | CCCC/C=C/C=C/c1nc2ccc(OC)cc2n2cccc12 [CHEMBL3260216] | – | – | Active | 5.36
12 | COc1cc(OC)c2c(C)[n+](-c3ccc(C(C)C)cc3C(C)C)c(C)cc2c1.F[B-](F)(F)F [CHEMBL519606] | – | – | Active | 6.27
13 | C[C@]12CC[C@H](O)C[C@@H]1CC[C@@H]1[C@@H]2CC[C@@]2(C)[C@H]1CC[C@@H]2[C@@](C)(O)c1ccccn1 [CHEMBL1214311] | Inactive | 4.00 | – | –
14 | COc1ccccc1-c1nnc(-c2ccc(C(=O)N/N=C/c3ccccc3Cl)cc2)o1 [CHEMBL4088386] | Inactive | 4.54 | – | –
15 | Nc1ccc2ncnc(Nc3ccc(OCc4cccc(F)c4)c(Cl)c3)c2c1 [CHEMBL3637893] | Inactive | 4.98 | – | –
16 | COc1ccc(OC)c2c(O)cc(C)cc12 [CHEMBL2071229] | Inactive | 4.42 | – | –
17 | CN[C@@H](C)[C@H]1CC[C@H]2[C@@H]3CC[C@H]4C[C@@H](N(C)C(=O)c5ccccc5)CC[C@]4(C)[C@H]3CC[C@]12C [CHEMBL503323] | Active | 5.06 | – | –
18 | COc1ccc([C@@H]2COc3c(ccc(O)c3CC=C(C)C)C2)c(OC)c1O [CHEMBL501755] | Active | 5.10 | – | –
19 | O=[N+]([O-])c1ccc(-c2c(-c3ccccc3)nc3cnccn23)cc1 [CHEMBL3634352] | Inactive | 4.56 | – | –
20 | CC(=O)CCCCCCCCCCCC[C@H]1CC[C@@H](O)[C@@H](C)N1 [CHEMBL249464] | Inactive | 4.12 | – | –

Row | SMILES | Outcome (L. major [1]; [3]) | pIC50 Value (L. major [2]; [4]) | Outcome (L. major [1]; [5]) | pIC50 Value (L. major [2]; [6])
21 | Cc1csc(C(=O)/C=C/c2cc3ccc(C)cc3nc2Cl)c1 [CHEMBL1940852] | – | – | Active | 5.60
22 | COc1ccc(/C=N/NC(=O)c2ccccc2OC)c(O)c1 [CHEMBL2382050] | Inactive | 4.88 | – | –
23 | COc1cc(/C=N/NC(N)=S)ccc1OCc1cn(-c2ccc(C(=O)O)cc2)nn1 [CHEMBL4173978] | Active | 5.24 | – | –
24 | CC[C@H](CO)Nc1nc(NCc2cccc(C)c2O)c2ncn(C(C)C)c2n1 [CHEMBL3423079] | Inactive | 4.70 | – | –
25 | COc1ccc(/C=N/NC(=O)c2ccccc2OC)cc1OC [CHEMBL2382040] | Inactive | 4.88 | – | –
26 | c1ccc(-c2nc3ccccn3c2-c2ccsc2)cc1 [CHEMBL2151872] | Inactive | 4.84 | – | –
27 | Cc1cccc2cc(/C=C/C(=O)c3ccc(Br)s3)c(Cl)nc12 [CHEMBL1940870] | – | – | Active | 5.70
28 | CCCCCCCc1ccc(Nc2c3ccccc3nc3ccccc23)cc1 [CHEMBL316058] | – | – | Active | 6.10
29 | NP(=O)(OCc1c(F)cc([N+](=O)[O-])cc1F)N(CCCl)CCCl (stereo not drawn) [CHEMBL1257018] | – | – | Active | 5.89
30 | Clc1ccc2c(c1)Nc1ccccc1O2 [CHEMBL1801896] | Inactive | 4.16 | – | –
31 | COc1cc(OC)c2c(C)[n+](-c3ccc4ncccc4c3)c(C)cc2c1.O=C([O-])C(F)(F)F [CHEMBL481907] | Inactive | 4.00 | – | –
32 | O=C(c1cccc(Cl)c1)N1CCN(c2nnc(-c3ccc([N+](=O)[O-])o3)s2)CC1 [CHEMBL458527] | Inactive | 4.88 | – | –
33 | O=[N+]([O-])c1ccc2nc(-c3ccccc3Cl)[nH]c2c1 [CHEMBL1947235] | – | – | Active | 5.48
34 | COc1ccc(/C=N/NC(=O)c2ccccc2OC)cc1O [CHEMBL2382051] | Inactive | 4.34 | – | –
35 | C[n+]1ccc(-c2c3nc(c(-c4cc[n+](C)cc4)c4ccc([nH]4)c(-c4cc[n+](C)cc4)c4nc(c(-c5cc[n+](C)cc5)c5ccc2[nH]5)C=C4)C=C3)cc1.Cc1ccc(S(=O)(=O)[O-])cc1.Cc1ccc(S(=O)(=O)[O-])cc1.Cc1ccc(S(=O)(=O)[O-])cc1.Cc1ccc(S(=O)(=O)[O-])cc1 [CHEMBL2170855] | Inactive | 4.68 | – | –
36 | COc1ccccc1-c1nnc(-c2ccc(C(=O)N/N=C/c3ccc(C)cc3)cc2)o1 [CHEMBL4079056] | Inactive | 4.53 | – | –
37 | CCOC(=O)C1=C(C)NC(=O)NC1c1ccccc1 (stereo not drawn) [CHEMBL507603] | – | – | Active | 5.42
38 | CC(=O)C1=C(CNc2ccc(C(=O)/C=C/c3ccccc3)cc2)N(C)C(=O)NC1c1ccccc1 (stereo not drawn) [CHEMBL3786339] | – | – | Active | 5.94
39 | Cl.N=C(NCc1ccccc1)c1ccc(N2CCN(c3nnc(-c4ccc([N+](=O)[O-])o4)s3)CC2)cc1 [CHEMBL1783206] | Active | 5.05 | – | –
40 | COc1cc(OC)c2c(C)[n+](-c3ccc(O)cc3)c(C)cc2c1.O=C([O-])C(F)(F)F [CHEMBL480760] | Inactive | 4.80 | – | –

Row | SMILES | Outcome (L. major [1]; [3]) | pIC50 Value (L. major [2]; [4]) | Outcome (L. major [1]; [5]) | pIC50 Value (L. major [2]; [6])
41 | Cc1cc(COP(N)(=O)N(CCCl)CCCl)ccc1[N+](=O)[O-] (stereo not drawn) [CHEMBL1256989] | Inactive | 4.52 | – | –
42 | CCN(C)c1ccc(Nc2c3ccccc3nc3ccccc23)cc1 [CHEMBL86724] | – | – | Active | 6.00
43 | COc1ccccc1C(=O)N/N=C/c1cc(O)cc(O)c1 [CHEMBL2382035] | Inactive | 4.55 | – | –
44 | O=[N+]([O-])c1cccc(-c2c(-c3ccc(F)cc3)nc3ccccn23)c1 [CHEMBL2151874] | Inactive | 4.00 | – | –
45 | O=C(/C=C/c1ccc(-n2ccnc2)cc1)c1ccc(Cl)c(Cl)c1Cl [CHEMBL571575] | – | – | Active | 5.78
46 | CC1=CCC[C@@]2(C)CC3=C(C[C@@H]12)C(=O)C=CC3=O [CHEMBL255103] | Inactive | 4.77 | – | –
47 | COc1ccc(/C=N/NC(N)=S)cc1OCc1cn(-c2ccc(C(=O)O)cc2)nn1 [CHEMBL4174032] | – | – | Active | 5.30
48 | CNc1ccc(Nc2c3ccccc3nc3ccccc23)cc1 [CHEMBL415467] | – | – | Active | 5.82
49 | Cc1csc(C(=O)/C=C/c2cc3cccc(C)c3nc2Cl)c1 [CHEMBL1940863] | – | – | Active | 5.74
50 | Cc1cc(C2=NNC(c3cc4cccc(C)c4nc3Cl)C2)c(C)s1 (stereo not drawn) [CHEMBL2235721] | – | – | Active | 5.58
51 | CN(C)CCNc1nccn2c(-c3ccncc3)c(-c3ccccc3)nc12 [CHEMBL3634363] | Inactive | 4.16 | – | –
52 | Cc1cccc2nc(-c3ccc(C(=O)N/N=C/c4cccc(O)c4O)cc3)[nH]c12 [CHEMBL3317782] | Inactive | 4.42 | – | –
53 | O=[N+]([O-])c1cccc(-c2nc3ccccc3[nH]2)c1 [CHEMBL475377] | – | – | Active | 5.47
54 | NC[C@@H]1O[C@H](O[C@H]2[C@@H](O)[C@H](O[C@@H]3[C@@H](O)[C@H](N)C[C@H](N)[C@H]3O[C@H]3O[C@H](CO)[C@@H](O)[C@H](O)[C@H]3N)O[C@@H]2CO)[C@H](N)[C@@H](O)[C@@H]1O [CHEMBL370143] | Inactive | 4.00 | – | –
55 | C[C@@H]1CC[C@@]2(OC1)O[C@H]1C[C@H]3C4=CCC5=CC(=O)[C@@H](O)C[C@]5(C)[C@H]4C[C@H](O)[C@]3(C)[C@H]1[C@@H]2C [CHEMBL455616] | Inactive | 4.15 | – | –
56 | Cc1ccc(Nc2ncnc3ccc([N+](=O)[O-])cc23)cc1 [CHEMBL3759143] | Inactive | 4.62 | – | –
57 | CCOC(=O)C1=C(COCCN)NC(C)=C(C(=O)OC)C1c1ccccc1Cl (stereo not drawn) [CHEMBL1491] | – | – | – | 5.47
58 | COc1ccc(CCN(C)CCCC(C#N)(c2ccc(OC)c(OC)c2)C(C)C)cc1OC (stereo not drawn) [CHEMBL6966] | – | 4.39 | – | –
